According to patent US4150970A, “Growth regulator for plants” (Board of Trustees of Michigan State University, priority 1977, dated 1979):

Tested on: plants
Assay: Plant growth regulation (general statement)
Type: in vivo
Conditions: crops

SMILES: CCCCCCCCCCCCCCCCCCCCCCCCCCCCCCO [Triacontanol, 1-triacontanol]
- application rate that substantially increases crop growth: ≥ 0.4 grams per acre
